Measurements from patent US20060167094A1, “Satiety agent” (priority 2005, published 2006).
Read-outs that look alike come from different tables or passages of the source.

Tests used:
plasma GLP-1 = assay: Plasma GLP-1 concentrations by radioimmunoassay; format: in vivo, human
Procedure: (§1) Once the catheter was positioned correctly, fasting motility was monitored until the occurrence of phase III of the interdigestive migrating motor complex (MMC). Immediately after the cessation of phase III activity [at time t=−15 min], a baseline venous blood sample was taken, and a visual analog scale questionnaire (VAS) (see Measurements), assessing appetite-related sensations, was administered. At t=0 min (i.e., during phase I of the MMC), the duodenal infusion of 1) C12, 2) C10, or 3) control solution was commenced and continued for 90 min. APD pressures were monitored throughout the infusion period; blood samples were taken, and the VAS administered every 15 min from t=0 min until t=90 min. At t=90 min, the infusion was terminated, and the subject was immediately extubated and offered a cold buffet-style meal, the composition of which is provided in Table 1. The amount of food offered was in excess of what the subject was expected to consume. The subject was given 30 min (i.e., t=90 min to t=120 min) to consume the meal and instructed to eat until comfortably full. After ingestion of the meal, the subject was monitored for a further 30 min, a further VAS was completed, and blood samples were taken at t=120 and 150 min. The intravenous cannula was then removed, and the subject was allowed to leave the laboratory.
(§2) Venous blood samples (10 ml) were collected in ice-chilled EDTA-treated tubes containing 400 kIU aprotinin (Trasylol, Bayer Australia) per millilitre of blood. Plasma was separated by centrifugation (3,200 rpm, 15 min, 4° C.) within 30 min of collection and stored at −70° C. until assayed.
Plasma GLP-1 concentrations (in pmol/l) were measured by radioimmunoassay using an adaptation of a previously published method (4) Antibody, supplied by Prof. […] It is likely that this antibody also reacts with the degraded form of GLP-1(9-36) amide. Intra-assay CV was 17% and interassay CV was 18%, with a sensitivity of 1.5 pmol/l.

CCK secretion = conditions: humans, cited from earlier work
[1] = isomolar concentrations; cited from earlier work
[2] = Appetite perceptions (VAS scores) during and after 90 min intraduodenal infusion; format: in vivo, human
Procedure: (§3) Each subject was studied on three occasions, separated by 3-10 days, to evaluate, in a double-blind, randomized fashion, the effects of intraduodenal infusions of 1) C12, 2) C10, or 3) control solution for 90 min on appetite perceptions, energy intake, APD pressures, and plasma CCK and GLP-1 concentrations.
as §1
Appetite sensations and energy intake. Subjective sensations of appetite, including hunger, fullness, desire to eat, prospective consumption (“how much food do you think you could eat if you were given a meal now?”), were assessed using validated VASs (Sensations of nausea and bloating were also assessed. Each VAS evaluated a sensation on a 100-mm horizontal line, where 0 represented “sensation is not felt at all” and 100 represented “sensation is felt the greatest.” Subjects were asked to place a vertical stroke on the 100-mm line in relation to what they were feeling at that particular point in time.
Baseline (“0”) values were calculated as the mean of values obtained at t=−15 and 0 min for VAS scores and plasma hormone concentrations and between t=−15 to 0 min for basal pyloric pressures, number, and amplitude of IPPWs, antral and duodenal PWs, and total number of duodenal PWSs. Basal pyloric pressures and the number and amplitude of IPPWs were expressed as means over 15-min segments during the 90-min infusion period. Numbers and amplitudes of antral and duodenal PWs were expressed as total number and mean values, respectively, for the 90-min infusion period. Duodenal PWSs were expressed as the total number of waves travelling over two, three, four, five, six, and seven channels during the 90-min infusion period. All data, except for plasma CCK and GLP-1 concentrations, were expressed as changes from baseline.
VAS scores, basal pyloric pressures, number and amplitude of IPPWs, and plasma hormone concentrations were analyzed by repeated-measures mixed model analysis of covariance (ANCOVA), with baseline as the covariate and time (0-90 min, at 15-min intervals) and treatment as within-subject factors. One-way ANOVA was used to assess the effect of treatment on energy intake, time taken to complete eating, total numbers and mean amplitudes of antral and duodenal PWs, and total number of duodenal PWSs. A logarithmic transformation was applied to nausea scores, antral amplitudes, and duodenal PWSs travelling 7.5 and 9 cm to better address the underlying assumptions of the models used (as these variables lacked normal distribution). If significance or near significance ([…]) was found, post hoc comparisons of least-squares means using Student's t-tests were performed. […]

[3] = Energy intake from the buffet meal after intraduodenal infusion; format: in vivo, human
Procedure: as §3, §1
Energy intake from the buffet meal [energy consumption (in kJ) and macronutrient distribution (in % and g energy)] was analyzed using commercially available software (Food works 3.0, Xyris Software; Highgate Hill, Queensland, Australia). The time taken to finish the meal (in min) was also evaluated.

plasma CCK = assay: Plasma CCK concentrations by radioimmunoassay; format: in vivo, human
Procedure: as §1, §2
Plasma CCK concentrations (in pmol/l) were determined after ethanol extraction using a previously described radioimmunoassay (3). A commercially available antibody (C258, Lot 105H4852, Sigma Chemical) raised in rabbits against the synthetic sulfated CCK-8 was employed. […] The intra-assay coefficient of variation (CV) was 9% and the interassay CV was 27%, with a sensitivity of 2.5 pmol/l. The sensitivity of the assay relates to its reliable detection limit.

[4] = Antropyloroduodenal (APD) pressures by manometry during intraduodenal infusion; format: in vivo, human
Excerpt: Subjects attended the laboratory at 0830 after fasting from 2200 the previous night from both solids and liquids. They were intubated with a 17-channel manometric catheter (Dentsleeve; Adelaide, South Australia, Australia) that was inserted through an anesthetized nostril and allowed to pass through the stomach and into the duodenum by peristalsis. The manometric catheter, which consisted of 16 sideholes spaced at 1.5-cm intervals, measures pressures in the antrum, pylorus, and duodenum. Six side holes (channels 1-6) were positioned in the antrum, a 4.5-cm sleeve sensor (channel 7), with two channels present on the back of the sleeve (channels 8 and 9), designed to measure pressure waves occurring over the entire pyloric region, were positioned across the pylorus, and seven channels were positioned in the duodenum (channels 10-16). An additional channel, used for intraduodenal infusions, was positioned 11.75 cm distal to the end of the sleeve sensor. The correct positioning of the catheter, so the sleeve sensor straddled the pylorus, was maintained by continuous measurement of the transmucosal potential difference (TMPD) between the most distal antral channel (channel 6; approximately −40 mV) and the most proximal duodenal channel (channel 10; ˜0 mV). For this purpose, an intravenous cannula filled with sterile saline was placed subcutaneously in the left forearm and used as a reference electrode. All manometric channels were perfused with degassed, distilled water except for the two TMPD channels, which were perfused with degassed 0.9% saline at 0.15 ml/min. An intravenous cannula was also placed into a right forearm vein for blood sampling to measure plasma CCK and GLP-1 concentrations.
as §1
APD pressures. Manometric pressures were digitized, recorded on a computer-based system (PowerMac 7100/75, Apple Computers; Cupertino, Calif.) running commercially available software (HAD, Associate Prof. G S Hebbard, Melbourne, Australia) written in LabView 3.1.1 (National Instruments), and stored for subsequent analysis. APD pressures were analysed for 1) number and amplitude of isolated pyloric pressure waves (IPPWs) and pressure waves (PWs) in the antrum and duodenum and 2) number and length of PW sequences (PWSs) in the duodenum using custom-written software (Gastrointestinal Motility Unit; Utrecht, The Netherlands) modified to our requirements. […]

[5] = during 90 min intraduodenal infusion, 0.375 kcal/min, compared with control
[6] = buffet meal, compared with control
[7] = 90 min infusion, compared with control

CCCCCCCCCC(=O)O [C10, decanoic (C10:0) acid, reference compound]
plasma GLP-1 concentrations compared with control (plasma GLP-1; during infusion, C12 effect from 30 to 90 min): no difference between C10 and control
plasma GLP-1 concentrations after meal ingestion (plasma GLP-1; t=120 and 150 min, compared with control): no difference between C10 and control
stimulation of CCK secretion (CCK secretion; gastric infusion): neither C11 nor C10
cytotoxicity relative to C12 [1]: similar
fullness (VAS) after meal ingestion ([2]; at 120 and 150 min, after the buffet meal): no difference between C10 and control
scores for bloating (VAS) ([2]; during 90 min intraduodenal infusion, 0.375 kcal/min): increased scores for bloating compared with control
nausea scores (VAS) [2, 5]: no difference in nausea scores between C10 and control
scores for hunger (VAS) [2, 5]: no differences were found between C10 and control
scores for prospective consumption (VAS) [2, 5]: no differences were found between C10 and control
scores for desire to eat (VAS) ([2]; during 90 min intraduodenal infusion, 0.375 kcal/min, healthy males, compared with control): no differences were found between C10 and control
energy intake at buffet meal ([3]; after 90 min intraduodenal infusion 0.375 kcal/min, compared with control): no difference between C10 and control infusion
amount of energy (in g) ingested from carbohydrate [3, 6]: no difference between C10 and control
amount of energy (in g) ingested from fat [3, 6]: no difference between C10 and control
amount of energy (in g) ingested from protein [3, 6]: no difference between C10 and control
time at which eating from the buffet meal was completed ([3]; mean±SE, not statistically significant): 20.6 ± 2.6 min
plasma CCK concentrations (plasma CCK; during 90 min infusion, compared with control): increased plasma CCK concentrations
time of peak plasma CCK (plasma CCK; from start of infusion): 15 min
basal pyloric pressure (tone) [4, 7]: significant difference between C10 and control
number of antral PWs [4, 7]: no difference between C10 and control
number of duodenal PWs [4, 7]: increased the number of duodenal PWs compared with control
number of IPPWs compared with control ([4]; C12: 0-15, 15-30 and 30-45 min, C10: 0-15 min): increased the number of IPPWs compared with control between 0 and 15 min
number of duodenal PWSs travelling over six channels (7.5 to <9 cm) ([4]; compared with control): decreased the number of waves that travelled over six channels compared with control
number of duodenal PWSs travelling over three channels (3 to <4.5 cm) ([4]; compared with control): no difference between C12 or C10 and control
number of duodenal PWSs travelling over two channels (1.5 to <3 cm) ([4]; compared with control): increased the number of waves compared with control
number of waves that travelled over nine channels ([4]; compared with control): no difference between C10 and control
amplitude of IPPWs compared with control ([4]; throughout the infusion period): no significant differences between C10 and control

CCCCCCCCCCC(=O)O [C11]
stimulation of CCK secretion (CCK secretion; gastric infusion): neither C11 nor C10

CCCCCCCCCCCCCCCCCC(=O)O [C18]
stimulation of CCK secretion (CCK secretion; duodenal infusion): reported to stimulate CCK secretion
